The results in this text go back to patent publication US10968178B2, “IP6K inhibitors” (TAKEDA PHARMACEUTICAL COMPANY LIMITED, priority 2017, dated 2021).

Common to all, as to type: biochemical
The target of one experiment is T1, human IP6K2 (Homo sapiens, UniProt Q9UHH9).
T1 construct: human IP6K2 (1-426) gene; GST; made in house; host or cells: Sf-9 insect cells
T1 sequence (Q9UHH9 1-426): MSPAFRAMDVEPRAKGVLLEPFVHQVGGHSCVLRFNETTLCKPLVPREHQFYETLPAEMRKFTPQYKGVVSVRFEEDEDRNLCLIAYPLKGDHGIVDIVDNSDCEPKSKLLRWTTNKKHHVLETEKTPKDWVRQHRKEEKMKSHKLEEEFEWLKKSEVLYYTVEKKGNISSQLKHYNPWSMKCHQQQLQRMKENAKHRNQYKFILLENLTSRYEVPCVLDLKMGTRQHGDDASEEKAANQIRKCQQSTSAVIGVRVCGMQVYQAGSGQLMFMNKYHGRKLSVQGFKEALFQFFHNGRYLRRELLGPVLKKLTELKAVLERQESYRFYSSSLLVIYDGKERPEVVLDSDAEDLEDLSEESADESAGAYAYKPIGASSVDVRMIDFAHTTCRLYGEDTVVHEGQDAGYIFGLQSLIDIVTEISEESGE
In words: IP6K enzyme inhibitory assay (ADP-Glo Kinase Assay), human IP6K2. The settings on record: compound concentration 0.1 μM; read-out: ADP-Glo method inhibitory rate (%) human IP6K2. The method, then: (§1) IP6K Enzyme Inhibitory Assay
(§2) Human IP6K3 enzyme was prepared by transducing human IP6K3 (1-410) gene into BL21 (DE3) Escherichia coli and purifying by Ni-NTA (nickel-nitrilotriacetic acid) affinity column. […] The enzymes were used after preservation at −70° C. The IP6K enzyme inhibitory activity of the test compound was measured by the following experiment method and using ADP-Glo™ Kinase Assay (manufactured by Promega). A test compound diluted with an assay buffer (20 mM HEPES (pH 7.5), 6 mM MgCl2, 0.01% Tween-20, 1 mM DTT) was first added by 2 μL to a 384 well plate. […] The IP6K enzyme solution diluted with the assay buffer was added by 2 μL to start the enzyme reaction. Incubation was performed at room temperature for a given time (120 min for rat IP6K3 alone, 60 min for others). After incubation at room temperature, ADP-Glo solution prepared according to the protocol of Promega was added by 3 μL to the 384 well plate and reacted at room temperature for 30 min. Thereafter, Kinase-Detection solution was added by 6 μL to the 384 well plate and reacted at room temperature for 60 min. After the reaction, the luminescence intensity was measured by a plate reader Envision (manufactured by PerkinElmer).

The next experiment has as its target T2, human IP6K1 (Homo sapiens, UniProt Q92551).
T2 construct: human IP6K1 (1-441) gene; GST; made in house; host or cells: Sf-9 insect cells
In words: IP6K enzyme inhibitory assay (ADP-Glo Kinase Assay), human IP6K1. To be noted: compound concentration 0.1 μM; read-out: ADP-Glo method inhibitory rate (%) human IP6K1. The method, then:
as §1, §2
On the technique in general: ADP-Glo first removes unused ATP, then detects ADP through luciferase.

The target of a further experiment is T3, human IP6K3 (Homo sapiens, UniProt Q96PC2).
T3 construct: human IP6K3 (1-410) gene; made in house; host or cells: BL21 (DE3) Escherichia coli
T3 sequence (Q96PC2 1-410): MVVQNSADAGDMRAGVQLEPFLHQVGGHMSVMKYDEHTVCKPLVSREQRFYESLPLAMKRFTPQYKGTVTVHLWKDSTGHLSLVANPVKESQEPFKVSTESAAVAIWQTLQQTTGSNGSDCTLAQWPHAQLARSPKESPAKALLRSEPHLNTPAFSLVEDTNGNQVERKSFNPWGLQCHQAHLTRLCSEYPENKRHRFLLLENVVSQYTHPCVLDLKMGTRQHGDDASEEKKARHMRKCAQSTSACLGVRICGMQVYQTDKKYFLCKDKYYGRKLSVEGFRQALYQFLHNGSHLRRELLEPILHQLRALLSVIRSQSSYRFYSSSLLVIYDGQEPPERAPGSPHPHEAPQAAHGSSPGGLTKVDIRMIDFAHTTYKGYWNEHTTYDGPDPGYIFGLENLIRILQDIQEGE
In words: IP6K enzyme inhibitory assay (ADP-Glo Kinase Assay), human IP6K3. To be noted: compound concentration 0.1 μM; read-out: ADP-Glo method inhibitory rate (%) human IP6K3. As for the experimental part:
as §1, §2

Structures are written as SMILES.

T2 sequence (Q92551 whole entry): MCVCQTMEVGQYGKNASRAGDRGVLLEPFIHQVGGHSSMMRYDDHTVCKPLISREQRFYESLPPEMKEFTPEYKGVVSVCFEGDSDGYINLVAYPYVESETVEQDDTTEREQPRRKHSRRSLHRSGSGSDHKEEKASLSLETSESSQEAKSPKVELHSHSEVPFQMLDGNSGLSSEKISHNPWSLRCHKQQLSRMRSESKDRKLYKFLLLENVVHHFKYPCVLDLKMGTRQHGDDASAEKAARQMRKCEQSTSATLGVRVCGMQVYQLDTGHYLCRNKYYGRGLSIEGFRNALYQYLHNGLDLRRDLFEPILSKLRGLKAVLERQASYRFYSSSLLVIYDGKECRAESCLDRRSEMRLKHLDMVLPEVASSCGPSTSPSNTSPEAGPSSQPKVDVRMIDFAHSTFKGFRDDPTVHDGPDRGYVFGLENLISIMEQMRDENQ

Consider `O=C(O)c1ccc2c(c1)[C@]1(CC[C@@H](Oc3ccc(Cl)cc3F)CC1)C(=O)N2` [Example 66, (1r,4r)-4-(4-chloro-2-fluorophenoxy)-2′-oxo-1′,2′-dihydrospiro[cyclohexane-1,3′-indole]-5′-carboxylic acid], for which the inhibition at 0.1 µM on human IP6K2 amounted to 100%; at human IP6K1, 99%; on human IP6K3, 96%.
Taken in the same sequence, the figures for `Cc1cncc(O[C@H]2CC[C@@]3(CC2)C(=O)Nc2ccc(C(=O)O)cc23)c1` [Example 33, (1r,4r)-4-((5-methylpyridin-3-yl)oxy)-2′-oxo-1′,2′-dihydrospiro[cyclohexane-1,3′-indole]-5′-carboxylic acid] were 40%, 37% and 74%.
On the same counts, the results for `O=C(O)c1ccc2c(c1)[C@]1(CC[C@@H](Oc3cc(OCc4ccccc4)ccn3)CC1)C(=O)N2` [Example 30, (1r,4r)-4-((4-(benzyloxy)pyridin-2-yl)oxy)-2′-oxo-1′,2′-dihydrospiro[cyclohexane-1,3′-indole]-5′-carboxylic acid] are 84%, 81% and 97%.
Taken in the same sequence, the figures for `O=C(O)c1ccc2c(n1)[C@]1(CC[C@@H](Oc3ccc(Cl)cc3)CC1)C(=O)N2` [Example 92, (1r,4r)-4-(4-chlorophenoxy)-2′-oxo-1′,2′-dihydrospiro[cyclohexane-1,3′-pyrrolo[3,2-b]pyridine]-5′-carboxylic acid] were 92%, 97% and 98%.
For `O=C(O)c1ccc2c(c1)[C@]1(CC[C@@H](Oc3ccc(F)c(C(F)(F)F)c3)CC1)C(=O)N2` [Example 79, (1r,4r)-4-(4-fluoro-3-(trifluoromethyl)phenoxy)-2′-oxo-1′,2′-dihydrospiro[cyclohexane-1,3′-indole]-5′-carboxylic acid], the figures for the inhibition at 0.1 µM on human IP6K2, at human IP6K1 and on human IP6K3 were 89%, 87% and 97%, respectively.
Taken in the same sequence, the figures for `Cn1nc(O[C@H]2CC[C@@]3(CC2)C(=O)Nc2ccc(C(=O)O)cc23)cc1C(F)(F)F` [Example 80, (1r,4r)-4-((1-methyl-5-(trifluoromethyl)-1H-pyrazol-3-yl)oxy)-2′-oxo-1′,2′-dihydrospiro[cyclohexane-1,3′-indole]-5′-carboxylic acid] were 82%, 62% and 89%.
On the same counts, the results for `Cc1cc(Cl)cc(C)c1O[C@H]1CC[C@@]2(CC1)C(=O)Nc1ccc(C(=O)O)nc12` [Example 94, (1r,4r)-4-(4-chloro-2,6-dimethylphenoxy)-2′-oxo-1′,2′-dihydrospiro[cyclohexane-1,3′-pyrrolo[3,2-b]pyridine]-5′-carboxylic acid] are 97%, 91% and 101%.
With `Cc1cc(C(F)(F)F)cnc1O[C@H]1CC[C@@]2(CC1)C(=O)Nc1ccc(C(=O)O)nc12` [Example 112, (1r,4r)-4-((3-methyl-5-(trifluoromethyl)pyridin-2-yl)oxy)-2′-oxo-1′,2′-dihydrospiro[cyclohexane-1,3′-pyrrolo[3,2-b]pyridine]-5′-carboxylic acid], the figures for the inhibition at 0.1 µM on human IP6K2, at human IP6K1 and on human IP6K3 were 90%, 90% and 97%, respectively.
As for `O=C(O)c1ccc2c(n1)[C@]1(CC[C@@H](Oc3ncc(C4CC4)cc3Cl)CC1)C(=O)N2` [Example 16, (1r,4r)-4-((3-chloro-5-cyclopropylpyridin-2-yl)oxy)-2′-oxo-1′,2′-dihydrospiro[cyclohexane-1,3′-pyrrolo[3,2-b]pyridine]-5′-carboxylic acid], the inhibition at 0.1 µM on human IP6K2 came to 89%; at human IP6K1, 99%; at human IP6K3 it was 98%.
With `N#Cc1ccc(O[C@H]2CC[C@@]3(CC2)C(=O)Nc2ccc(C(=O)O)cc23)cc1Cl` [Example 73, (1r,4r)-4-(3-chloro-4-cyanophenoxy)-2′-oxo-1′,2′-dihydrospiro[cyclohexane-1,3′-indole]-5′-carboxylic acid], the inhibition at 0.1 µM on human IP6K2 was found to be 97%; at human IP6K1 it was 98%; on human IP6K3 it was 91%.
Taken in the same sequence, the figures for `Cc1ncccc1O[C@H]1CC[C@@]2(CC1)C(=O)Nc1ccc(C(=O)O)cc12` [Example 32, (1r,4r)-4-((2-methylpyridin-3-yl)oxy)-2′-oxo-1′,2′-dihydrospiro[cyclohexane-1,3′-indole]-5′-carboxylic acid] were 67%, 63% and 88%.
On the same counts, the results for `Cc1cc(O[C@H]2CC[C@@]3(CC2)C(=O)Nc2ccc(C(=O)O)cc23)nc(C)n1` [Example 40, (1r,4r)-4-((2,6-dimethylpyrimidin-4-yl)oxy)-2′-oxo-1′,2′-dihydrospiro[cyclohexane-1,3′-indole]-5′-carboxylic acid] are 18%, 14% and 49%.
Taken in the same sequence, the figures for `O=C(O)c1ccc2c(c1)[C@]1(CC[C@@H](Oc3cccc(C(F)(F)F)c3F)CC1)C(=O)N2` [Example 77, (1r,4r)-4-(2-fluoro-3-(trifluoromethyl)phenoxy)-2′-oxo-1′,2′-dihydrospiro[cyclohexane-1,3′-indole]-5′-carboxylic acid] were 99%, 94% and 98%.
In the case of `O=C(O)c1ccc2c(c1)[C@]1(CC[C@@H](Oc3cccc(C(F)(F)F)c3)CC1)C(=O)N2` [Example 75, (1r,4r)-2′-oxo-4-(3-(trifluoromethyl)phenoxy)-1′,2′-dihydrospiro[cyclohexane-1,3′-indole]-5′-carboxylic acid], the inhibition at 0.1 µM at human IP6K2 came to 94%; at human IP6K1, 89%; at human IP6K3, 89%.
Consider `O=C(O)c1ccc2c(c1)[C@]1(CC[C@@H](Oc3cc(Cl)ccn3)CC1)C(=O)N2` [Example 23, (1r,4r)-4-((4-chloropyridin-2-yl)oxy)-2′-oxo-1′,2′-dihydrospiro[cyclohexane-1,3′-indole]-5′-carboxylic acid], for which the inhibition at 0.1 µM at human IP6K2 was 79%; on human IP6K1 it was 72%; on human IP6K3, 92%.
On the same counts, the results for `O=C(O)c1ccc2c(c1)[C@]1(CC[C@@H](Oc3ncc(C(F)(F)F)cc3F)CC1)C(=O)N2` [Example 27, (1r,4r)-4-((3-fluoro-5-(trifluoromethyl)pyridin-2-yl)oxy)-2′-oxo-1′,2′-dihydrospiro[cyclohexane-1,3′-indole]-5′-carboxylic acid] are 93%, 97% and 96%.
On the same counts, the results for `Cc1cccc(O[C@H]2CC[C@@]3(CC2)C(=O)Nc2ccc(C(=O)O)cc23)c1` [Example 42, (1r,4r)-4-(3-methylphenoxy)-2′-oxo-1′,2′-dihydrospiro[cyclohexane-1,3′-indole]-5′-carboxylic acid] are 90%, 81% and 97%.
Taken in the same sequence, the figures for `Cc1ccccc1O[C@H]1CC[C@@]2(CC1)C(=O)Nc1ccc(C(=O)O)cc12` [Example 41, (1r,4r)-4-(2-methylphenoxy)-2′-oxo-1′,2′-dihydrospiro[cyclohexane-1,3′-indole]-5′-carboxylic acid] were 93%, 93% and 98%.
